Structures can show the parent of a compound that is named as a salt.
Assay: Inhibition of formalin induced pain response in mice
Type: in vivo, mouse (NMRI female mice)
Details: 0.1 mg/kg, 1% formalin into left hind paw
Protocol: Compounds of formula I may be used to treat all painful, hyperalgesic and/or inflammatory conditions in which C-fibers play a pathophysiological role by eliciting neurogenic pain or inflammation, i.e.: Formalin induced pain or paw oedema […] About 20 g NMRI female mice were injected […] 1% formalin into the left hind paw. The animals were then placed on a heated (31° C.) table, and the pain response was scored. After 1 h they were killed and bled. Left and right hind paws were removed and the weight difference between the paws was used as indication of the oedema response of the formalin injected paw. Values for inhibition of formalin induced pain response for some representative compounds are recorded in table 1.

| SMILES | % Pain inhibition (inhibition of formalin induced pain response) [%] |
| --- | --- |
| O=C(O)[C@@H]1CCCN(CCC=C2c3ccccc3CSc3ccccc32)C1 [Example 3, (R)-1-(3-(6,11-Dihydro-dibenz[b,e]thiepin-11-yl)-1-propylidene)-3-piperidinecarboxylic acid hydrochloride] | 31 |
| Cl.O=C1Cc2ccccc2N(CCCN2CCC[C@@H](C(=O)O)C2)c2ccccc21 [Example 1, (R)-1-(3-(10-Oxo-10,11-dihydro-5H-dibenz[b,f]azepin-5-yl)-1-propyl)-3-piperidinecarboxylic acid hydrochloride] | 21 |
